Measured values published in BindingDB's records for doi:10.1021/jm050820s (Schering-Plough Research Institute, 2006).
pKi: −log10 of the molar value.

target: Genome polyprotein (Hepatitis C virus genotype 1a (isolate H77), UniProt P27958); assay: Continuous Spectrophotometric Assay; settings: not given
Procedure: Proteolytic cleavage of the ester linkage between the Nva (L-norvaline) and the chromophore (PAP) was monitored for change in absorbance at 370 nm. Initial velocities were determined using linear regression and kinetic constants were obtained by fitting the data to the Michaelis-Menten equation.

Genome polyprotein, sequence (P27958 1027-1657 limits assumed): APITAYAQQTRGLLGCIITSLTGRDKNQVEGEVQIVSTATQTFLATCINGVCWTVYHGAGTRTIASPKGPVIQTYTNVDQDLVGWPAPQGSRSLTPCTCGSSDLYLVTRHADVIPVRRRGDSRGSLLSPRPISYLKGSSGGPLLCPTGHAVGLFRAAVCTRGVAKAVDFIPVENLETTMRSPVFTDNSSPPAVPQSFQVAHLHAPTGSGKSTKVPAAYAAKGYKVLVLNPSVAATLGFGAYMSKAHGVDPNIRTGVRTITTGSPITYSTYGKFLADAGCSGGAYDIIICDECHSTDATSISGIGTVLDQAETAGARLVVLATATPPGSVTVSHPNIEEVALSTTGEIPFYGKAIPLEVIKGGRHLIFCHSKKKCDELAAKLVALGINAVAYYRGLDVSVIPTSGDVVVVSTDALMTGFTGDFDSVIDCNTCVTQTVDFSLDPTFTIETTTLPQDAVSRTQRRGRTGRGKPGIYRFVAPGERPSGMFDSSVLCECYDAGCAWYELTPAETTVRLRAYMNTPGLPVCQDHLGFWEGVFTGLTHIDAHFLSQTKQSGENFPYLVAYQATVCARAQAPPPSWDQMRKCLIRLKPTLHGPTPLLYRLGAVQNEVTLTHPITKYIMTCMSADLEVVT

SMILES | pKi
CCCC(NC(=O)[C@@H]1C[C@@H]2CN1C(=O)[C@H](C1CCCCC1)NC(=O)Cc1cccc(c1)OCCCN2S(=O)(=O)c1ccccc1)C(=O)C(=O)NCC(=O)N[C@H](C(=O)N(C)C)c1ccccc1 (stereo partly drawn) [3-{[(7R,9S,12S)-6-(benzenesulfonyl)-12-cyclohexyl-11,14-dioxo-2-oxa-6,10,13-triazatricyclo[14.3.1.1^{7,10}]henicosa-1(20),16,18-trien-9-yl]formamido}-N-({[(S)-(dimethylcarbamoyl)(phenyl)methyl]carbamoyl}methyl)-2-oxohexanamide] | 7.44
CCCC(NC(=O)[C@@H]1C[C@@H]2CN1C(=O)[C@H](C1CCCCC1)NC(=O)Cc1cccc(c1)OCCCS2(=O)=O)C(=O)C(=O)NCC(=O)N[C@H](C(=O)N(C)C)c1ccccc1 (stereo partly drawn) [(2S)-({N-[3-({[(7R,9S,12S)-12-cyclohexyl-6,6-dioxido-11,14-dioxo-2-oxa-6-thia-10,13-diazatricyclo[14.3.1.17,10]henicosa-1(20),16,18-trien-9-yl]carbonyl}amino)-2-oxohexanoyl]glycyl}amino)(phenyl)acetic acid N,N-dimethyl amide] | 5.48

same assay, conditions: pH 6.5; 30 °C

SMILES | pKi
CCCC(NC(=O)[C@@H]1C[C@@H]2CN1C(=O)[C@H](C1CCCCC1)NC(=O)Cc1cccc(c1)OCCCCO2)C(=O)C(=O)NCC(=O)N[C@H](C(=O)N(C)C)c1ccccc1 (stereo partly drawn) [3-{[(5S,8S,10R)-5-cyclohexyl-3,6-dioxo-11,16-dioxa-4,7-diazatricyclo[15.3.1.1^{7,10}]docosa-1(20),17(21),18-trien-8-yl]formamido}-N-({[(S)-(dimethylcarbamoyl)(phenyl)methyl]carbamoyl}methyl)-2-oxohexanamide] | 8.15
CCCC(NC(=O)[C@@H]1C[C@@H]2CN1C(=O)[C@H](C1CCCCC1)NC(=O)Cc1cccc(c1)OCCO2)C(=O)C(=O)NCC(=O)N[C@H](C(=O)N(C)C)c1ccccc1 (stereo partly drawn) [3-{[(6R,8S,11S)-11-cyclohexyl-10,13-dioxo-2,5-dioxa-9,12-diazatricyclo[13.3.1.1^{6,9}]icosa-1(19),15,17-trien-8-yl]formamido}-N-({[(S)-(dimethylcarbamoyl)(phenyl)methyl]carbamoyl}methyl)-2-oxohexanamide] | 7.52
CCCC(NC(=O)[C@@H]1C[C@@H]2CN1C(=O)[C@H](C1CCCCC1)NC(=O)Cc1cccc(c1)OCCCS2)C(=O)C(=O)NCC(=O)N[C@H](C(=O)N(C)C)c1ccccc1 (stereo partly drawn) [(2S)-({N-[3-({[(7R,9S,12S)-12-cyclohexyl-11,14-dioxo-2-oxa-6-thia-10,13-diazatricyclo[14.3.1.17,10]henicosa-1(20),16,18-trien-9-yl]carbonyl}amino)-2-oxohexanoyl]glycyl}amino)(phenyl)acetic acid N,N-dimethyl amide] | 8.00
CCC[C@H](NC(=O)[C@@H]1C[C@@H]2CN1C(=O)[C@H](C(C)(C)C)NC(=O)Cc1cccc(c1)OCCCO2)C(=O)C(=O)NCC(=O)N[C@H](C(=O)N(C)C)c1ccccc1 [(2S)-({N-[(3S)-3-({[(7R,9S,12S)-12-tert-butyl-11,14-dioxo-2,6-dioxa-10,13-diazatricyclo[14.3.1.17,10]henicosa-1(20),16,18-trien-9-yl]carbonyl}amino)-2-oxohexanoyl]glycyl}amino)(phenyl)acetic acid N,N-dimethyl amide] | 7.82
CCC[C@H](NC(=O)[C@@H]1C[C@H]2CN1C(=O)[C@H](C(C)(C)C)NC(=O)Cc1cccc(c1)OCCCO2)C(=O)C(=O)NCC(=O)N[C@H](C(=O)N(C)C)c1ccccc1 [(2S)-({N-[(3S)-3-({[(7S,9S,12S)-12-tert-butyl-11,14-dioxo-2,6-dioxa-10,13-diazatricyclo[14.3.1.17,10]henicosa-1(20),16,18-trien-9-yl]carbonyl}amino)-2-oxohexanoyl]glycyl}amino)(phenyl)acetic acid N,N-dimethyl amide] | 6.89
